The results in this text go back to PubChem BioAssay (NCI).

Among the test systems are DLD-1 colon; DMS 114 small cell lung; DMS 273 small cell lung; HOP-18 NSCLC; IGROV1 ovarian; KM20L2 colon; LXFL 529 NSCLC; M19-MEL melanoma; MALME-3M melanoma; NCI-H226 lung; SK-OV-3 ovarian; SNB-19 CNS; SNB-78 CNS; SW-620 colon; XF 498 CNS; NCI-H460 lung; RXF-631 renal; MDA-MB-231 breast.
Assay in all cases: DTP human tumour cell line panel, 48 h

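A five-concentration, 48-hour dose response in 96-well plates underlies each endpoint, interpolated linearly between surrounding concentrations. TGI: concentration producing complete growth inhibition.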

Broadly, the TGI is the concentration giving total growth inhibition. The low end stands for more potent growth arrest, the high end for less potent growth arrest. Turning to `COc1ccc(N2C(=O)C3c4[nH]c5ccccc5c4C4CC(C)CC(C)C4C3C2=O)cc1` (configuration not stated), the total growth inhibition concentration (TGI) in the assay on DLD-1 colon, with DMS 114 small cell lung, in the assay on DMS 273 small cell lung, with HOP-18 NSCLC, in the assay with IGROV1 ovarian and with KM20L2 colon was over 100 µM each time. Further, the TGI with LXFL 529 NSCLC, in the assay with M19-MEL melanoma, in the assay on MALME-3M melanoma, in the assay with NCI-H226 lung, with SK-OV-3 ovarian and in the assay with SNB-19 CNS was over 100 µM throughout. For the same molecule, the concentration for total growth inhibition (TGI) with SNB-78 CNS, in the assay with SW-620 colon and in the assay on XF 498 CNS was over 100 µM in each case.
As to `COC(=O)NN=C1C(C)(C)C(=O)C1(C)C`, the TGI with DLD-1 colon, with DMS 273 small cell lung, with IGROV1 ovarian, with KM20L2 colon, with LXFL 529 NSCLC and in the assay on MALME-3M melanoma was over 100 µM in each case. Moreover, the TGI in the assay on NCI-H226 lung, in the assay with NCI-H460 lung, in the assay on RXF-631 renal, in the assay on SK-OV-3 ovarian, with SNB-78 CNS and in the assay with SW-620 colon was over 100 µM each time. This molecule also came in with a concentration for total growth inhibition (TGI) with XF 498 CNS of over 100 µM.
On to `CCCCCCCCCCCCCCCCOCC(CP(=O)([O-])OCC[n+]1ccccc1)OC` (configuration not stated), for which the TGI with DLD-1 colon was 11.1 µM; in the assay on DMS 114 small cell lung, 26.5 µM; in the assay with DMS 273 small cell lung it was 5.63 µM; in the assay with IGROV1 ovarian it was 17.6 µM; in the assay with LXFL 529 NSCLC it was 23.5 µM; in the assay on M19-MEL melanoma, 25.2 µM. Moreover, the TGI in the assay on MALME-3M melanoma amounted to 32.8 µM; in the assay on NCI-H226 lung it was 15.5 µM; with RXF-631 renal, 28.9 µM; in the assay on SK-OV-3 ovarian, 32.7 µM; in the assay with SNB-19 CNS, 21.6 µM; with SNB-78 CNS, 31.1 µM. The TGI with SW-620 colon stood at 31.6 µM; in the assay with XF 498 CNS, 24.7 µM.
Consider `CC(O)c1ccc[n+](Cc2ccccc2)c1` (configuration not stated), for which the concentration for total growth inhibition (TGI) in the assay on DLD-1 colon, in the assay on DMS 114 small cell lung, in the assay with DMS 273 small cell lung, in the assay on HOP-18 NSCLC, with IGROV1 ovarian and in the assay on KM20L2 colon was over 400 µM throughout. Besides, the TGI with LXFL 529 NSCLC, with M19-MEL melanoma, in the assay with MALME-3M melanoma, with NCI-H226 lung, in the assay with NCI-H460 lung and with RXF-631 renal was over 400 µM throughout. Further, the TGI with SK-OV-3 ovarian, in the assay with SNB-19 CNS, with SW-620 colon and with XF 498 CNS was over 400 µM each time.
For `O=C(c1ccccc1)[C@@H]1C[C@H](Sc2ccccc2)c2cc(Cl)ccc2N1`, the TGI was over 100 µM in the assay on DLD-1 colon; 82.6 µM with DMS 114 small cell lung; 84 µM with DMS 273 small cell lung; over 100 µM in the assay on HOP-18 NSCLC; over 100 µM in the assay with IGROV1 ovarian; 70.3 µM with KM20L2 colon. Besides, the TGI in the assay on LXFL 529 NSCLC is 77.5 µM; with M19-MEL melanoma, over 100 µM; in the assay on MALME-3M melanoma, over 100 µM; in the assay on NCI-H226 lung, 62.9 µM; in the assay on NCI-H460 lung, 91.6 µM; in the assay with RXF-631 renal, 83.1 µM. The TGI with SNB-19 CNS is over 100 µM; with SNB-78 CNS it was over 100 µM; in the assay on SW-620 colon, 59.8 µM; with XF 498 CNS, 46.9 µM.
As for `Cn1ccc2c(C(=O)c3ccccc3)cccc2c1=O`, the TGI with DLD-1 colon, with DMS 114 small cell lung, in the assay on DMS 273 small cell lung, in the assay on IGROV1 ovarian, in the assay on LXFL 529 NSCLC and in the assay with M19-MEL melanoma was over 100 µM throughout. For the same molecule, the TGI with MALME-3M melanoma, with NCI-H460 lung, in the assay with SK-OV-3 ovarian, in the assay with SW-620 colon and in the assay on XF 498 CNS was over 100 µM in each case.
Consider `O=C(O)CCc1cccc2c1oc1c(CCC(=O)O)cccc12`, for which the TGI in the assay with DLD-1 colon, in the assay on DMS 114 small cell lung, in the assay with DMS 273 small cell lung, in the assay with HOP-18 NSCLC, with IGROV1 ovarian and in the assay on KM20L2 colon was over 100 µM in each case. Further, the TGI with LXFL 529 NSCLC, with M19-MEL melanoma, in the assay with MALME-3M melanoma, with NCI-H226 lung, with NCI-H460 lung and with SK-OV-3 ovarian was over 100 µM throughout. Further, the TGI with SNB-19 CNS, with SNB-78 CNS, with SW-620 colon and in the assay with XF 498 CNS was over 100 µM throughout.
For the molecule `Cn1c(Cl)cn2c3nc4ccccc4nc3c(=O)c(C#N)c12`, the TGI with DLD-1 colon, in the assay on DMS 114 small cell lung, in the assay on DMS 273 small cell lung, with HOP-18 NSCLC, with IGROV1 ovarian and with LXFL 529 NSCLC was over 100 µM in each case. In addition, the TGI with M19-MEL melanoma, in the assay with MALME-3M melanoma, in the assay on MDA-MB-231 breast, with NCI-H226 lung, with NCI-H460 lung and in the assay on SK-OV-3 ovarian was over 100 µM in each case. In addition, the TGI with SNB-19 CNS, in the assay on SNB-78 CNS, in the assay with SW-620 colon and in the assay with XF 498 CNS was over 100 µM each time.
`CC(C)C(Sc1nc(-c2ccccc2)c(-c2ccccc2)[nH]1)C(=O)NN` (configuration not stated): the TGI in the assay on DLD-1 colon, in the assay with DMS 114 small cell lung, with DMS 273 small cell lung, in the assay with IGROV1 ovarian, in the assay with KM20L2 colon and in the assay with LXFL 529 NSCLC was over 100 µM in each case. Besides, the TGI with M19-MEL melanoma, in the assay with MALME-3M melanoma, in the assay on NCI-H226 lung, with NCI-H460 lung, in the assay with SK-OV-3 ovarian and in the assay on SNB-19 CNS was over 100 µM each time. Further, the TGI in the assay with SNB-78 CNS, in the assay with SW-620 colon and in the assay on XF 498 CNS was over 100 µM each time.
